Like-named read-outs stand apart in the source and are kept apart here.
Experiments:
Format in all cases: cell-based
[1] = test system: Human monocyte derived dendritic cells; assay: LPS-stimulated monocyte-derived dendritic cell IL-12 release, ELISA; conditions: for Inhibition (percent) of IL-12 release: 1 µM of PGE2; for Inhibition (percent) of IL-12 release / inhibition at 1 µM: 10 ng/mL LPS, approx. 18 hr; for inhibition at 1 µM: Homo sapiens, Dendritic cell, 18 h, read-out: Inhibition (percent) of IL-12 release
From the text: Following stimulation through the toll-like receptors TLR, DCs express and release proinflammatory cytokines and chemokines and may induce activation and proliferation of naïve T cells. The binding of Nileprost to the EP receptor inhibits TLR4 ligand (LPS)-stimulated IL-12 release. Therefore, Nileprost skews the CD4 T cell differentiation to a Th-2 lineage.
IL-12 is a 75 kDa glycoprotein heterodimer (p70) composed of two genetically unrelated subunits linked by a disulfide bond. Enzyme-linked immunosorbant assays based on antibodies specific to IL-12 p70 are commercially available. Standards and samples are pipetted into the wells of a microplate. An antibody specific to human IL-12 is added to the wells. A substrate is added to the wells and color develops in proportion to the amount of IL-12 bound. The intensity of the color is measured.
Human monocyte-derived dendritic cells were isolated from human donors using a Ficoll density gradient and residual erythrocytes were removed by selective lysis. CD14 MicroBeads were used for separation of human cells based on the expression of the CD14 antigen. The dendritic cells were cultured at approximately 1.5×10^6 cells per mL in RPMI1640 with fetal bovine serum, 200 ng/mL GM-CSF (Leukine) and 10 ng/mL IL-4. The cells grew for a period of 3 days and then the media was changed. 10 ng/mL LPS was used to activate the cells. 1 μM of Nileprost and 1 µM of PGE2 were added during the LPS stimulation. Cells were incubated for approximately 18 hr at 37° C. IL-12 released during activation was measured by ELISA.

human T cells = assay: ConA-stimulated T lymphocyte Th-1 cytokine (IFN-γ) release, ELISA; conditions: for inhibition at 0.0005 µM / inhibition at 0.00125 µM / inhibition at 0.0025 µM / inhibition at 0.005 µM / inhibition at 0.01 µM / inhibition at 0.02 µM: Homo sapiens, T-cell, 18 h, ConA 2 μg/mL, approx. 18 hr, read-out: Inhibition (percent) of IFN-γ release; for inhibition at 0.0005 µM: Nileprost 0.5 nM; for inhibition at 0.00125 µM: Nileprost 1.25 nM; for inhibition at 0.0025 µM: Nileprost 2.5 nM; for inhibition at 0.005 µM: Nileprost 5 nM; for inhibition at 0.01 µM: Nileprost 10 nM; for inhibition at 0.02 µM: Nileprost 20 nM
From the text: The activation of a human T lymphocyte by an antigen-presenting cell and antigen through the T cell receptor is mimicked in experimental conditions by the lectin Concanavilin A (ConA). It is known that ConA binds to the T cell receptor and stimulates the cell to release various cytokines. The binding of Nileprost to the EP receptor inhibits various cytokines release. One of the Th-1 released cytokines is IFN-γ. The biochemistry and biological activities of IFN-γ have been extensively reviewed in the literature.
Human IFN-γ is a dimer of the expressed 143 amino acid protein. Enzyme-linked immunosorbant assays (ELISA) based on antibodies specific to IFN-γ are commercially available. Standards and samples are pipetted into the wells of a microplate. An antibody specific to human IFN-γ is added to the wells. A substrate is added to the wells and color develops in proportion to the amount of IFN-γ bound. The intensity of the color is measured.
Peripheral blood lymphocytes were isolated from human donors using a Ficoll density gradient and residual erythrocytes were removed by selective lysis. The lymphocytes are cultured at approximately 10^6 cells per mL in RPMI1640 with 10% additional fetal bovine serum. The cell cultures were activated with 2 μg/mL of ConA as described above. Nileprost was added at various dilutions during the ConA activation. Cells were incubated for approximately 18 hr at 37° C. IFN-γ released during activation was measured by ELISA.

human CD8 cells = assay: Anti-CD3/CD28-stimulated cytotoxic CD8+ lymphocyte cytokine release, multi-cytokine bead immunoassay; conditions: 1 μM Nileprost; for inhibition at 1 µM: Homo sapiens, Lymphocyte, Anti-CD3/CD28 stimulation, overnight
From the text: The activation of a human T lymphocyte by an antigen-presenting cell and antigen through the T cell receptor is mimicked in experimental conditions by the addition of antibodies to the CD3 subunit of the T cell receptor and antibodies to the CD28 costimulatory receptor. It is known that anti-CD3 anti-CD28 binding to T lymphocytes stimulates the cells to release various cytokines. Some of these cytokines are IL-2, IFN-γ and GM-CSF. The biochemistry and biological activities of these cytokines have been extensively reviewed in the literature. The binding of Nileprost to the EP receptor inhibits the release of various CD8+ cytokines.
Multi-cytokine immunosorbant assays based on antibodies specific to human cytokines are commercially available. Standards and samples are pipetted into sample tubes. A monoclonal antibody specific for a cytokine is covalently linked to a fluorescent bead set, which captures the cytokine. A complementary biotinylated monoclonal cytokine antibody then completes the immunological sandwich and the reaction is detected with streptavidin-phycoerythrin.
CD14-negative populations were isolated from four donors by Miltenyi CD14 beads. The four populations were allowed to rest at 5×10^6/mL in separate flasks overnight in RPMI 1640, 10% fetal bovine serum. Meanwhile, anti-CD3 antibody (OKT3, functional antibody, eBioscience) were bound to 10 cm plates at 5 μg/mL in sodium carbonate binding buffer at 4° C. The next day, the cells were mixed and 1×10^9 cells were taken for CD8 isolation using the Milenyi CD8 isolation kit (negative selection). The resulting 3.9×10^8 CD8 cells were resuspended in medium at 4×10^6/mL and added to the 10 cm CD3-bound plates. Soluble anti-CD28 (2-5 μg/mL) and 1 μM Nileprost or vehicle alone were added to the CD8 cells. Incubation was continued overnight and cytokines were detected as described above.

In the case of CCCCC[C@H](O)/C=C/[C@H]1[C@H](O)CC(=O)[C@@H]1C/C=C\CCCC(=O)O [PGE2, Prostaglandin E2, reference compound], the “Inhibition (percent) of IL-12 release” value ([1]; Donor 1) was 80%, the “Inhibition (percent) of IL-12 release” value ([1]; Donor 2) was 33% and the “Inhibition (percent) of IL-12 release” value ([1]; Donor 3) was 83%. For the same compound, the “Inhibition (percent) of IL-12 release” value ([1]; Donor 4) was 72%.

Compound CCCCC(C)[C@H](O)/C=C/[C@@H]1[C@H]2C/C(=C(\C#N)CCCC(=O)O)O[C@H]2C[C@H]1O (some centres unmarked) [Nileprost] has an inhibition at 0.0005 µM (human T cells; Donor 1) of 17%, an inhibition at 0.00125 µM (human T cells; Donor 1) of 23% and an inhibition at 0.0025 µM (human T cells; Donor 1) of 45%. The inhibition at 0.005 µM (human T cells; Donor 1) was 56%, the inhibition at 0.01 µM (human T cells; Donor 1) was 50% and the inhibition at 0.02 µM (human T cells; Donor 1) was 67%. For the same compound, the inhibition at 0.0005 µM (human T cells; Donor 2) was 2%, the inhibition at 0.00125 µM (human T cells; Donor 2) was 11% and the inhibition at 0.0025 µM (human T cells; Donor 2) was 17%. For the same compound, the inhibition at 0.005 µM (human T cells; Donor 2) was 35%, the inhibition at 0.01 µM (human T cells; Donor 2) was 43% and the inhibition at 0.02 µM (human T cells; Donor 2) was 41%. The inhibition at 0.0005 µM (human T cells; Donor 3) was 26%, the inhibition at 0.00125 µM (human T cells; Donor 3) was 36% and the inhibition at 0.0025 µM (human T cells; Donor 3) was 43%. It also gave an inhibition at 0.005 µM (human T cells; Donor 3) of 54%, an inhibition at 0.01 µM (human T cells; Donor 3) of 64% and an inhibition at 0.02 µM (human T cells; Donor 3) of 68%. It also gave an inhibition at 0.0005 µM (human T cells; Donor 4) of 21%, an inhibition at 0.00125 µM (human T cells; Donor 4) of 29% and an inhibition at 0.0025 µM (human T cells; Donor 4) of 31%. The inhibition at 0.005 µM (human T cells; Donor 4) was 48%, the inhibition at 0.01 µM (human T cells; Donor 4) was 55% and the inhibition at 0.02 µM (human T cells; Donor 4) was 56%. For the same compound, the “Inhibitory activity in T lymphocyte Th-1 cytokine release (in words)” value (human T cells; dose responsively, 0.5-20 nM) was “very high inhibitory activity”, the “Inhibitory activity in cytotoxic CD8+ lymphocyte cytokine release (in words)” value (human CD8 cells) was “very high inhibitory activity” and the inhibition at 1 µM (human CD8 cells; Donor 1, read-out: Inhibition (percent) of GM-CSF release) was 77%. For the same compound, the inhibition at 1 µM (human CD8 cells; Donor 1, read-out: Inhibition (percent) of IFN-γ release) was 79%, the inhibition at 1 µM (human CD8 cells; Donor 1, read-out: Inhibition (percent) of IL-2 release) was 71% and the inhibition at 1 µM (human CD8 cells; Donor 2, read-out: Inhibition (percent) of GM-CSF release) was 65%. The inhibition at 1 µM (human CD8 cells; Donor 2, read-out: Inhibition (percent) of IFN-γ release) was 59%, the inhibition at 1 µM (human CD8 cells; Donor 2, read-out: Inhibition (percent) of IL-2 release) was 68% and the inhibition at 1 µM (human CD8 cells; Donor 3, read-out: Inhibition (percent) of GM-CSF release) was 87%. The inhibition at 1 µM (human CD8 cells; Donor 3, read-out: Inhibition (percent) of IFN-γ release) was 79%, the inhibition at 1 µM (human CD8 cells; Donor 3, read-out: Inhibition (percent) of IL-2 release) was 88% and the inhibition at 1 µM (human CD8 cells; Donor 4, read-out: Inhibition (percent) of GM-CSF release) was 61%. For the same compound, the inhibition at 1 µM (human CD8 cells; Donor 4, read-out: Inhibition (percent) of IFN-γ release) was 80%, the inhibition at 1 µM (human CD8 cells; Donor 4, read-out: Inhibition (percent) of IL-2 release) was 70% and the “Inhibitory activity in human monocyte-derived dendritic cell (DC) cytokine release (in words)” value ([1]; 1 μM of Nileprost) was “very high inhibitory activity”. The inhibition at 1 µM ([1]; Donor 1, 1 μM of Nileprost) was 84%, the inhibition at 1 µM ([1]; Donor 2, 1 μM of Nileprost) was 51% and the inhibition at 1 µM ([1]; Donor 3, 1 μM of Nileprost) was 69%. For the same compound, the inhibition at 1 µM ([1]; Donor 4, 1 μM of Nileprost) was 66%.
